The values below come from patent US20250154169A1, “COMPOUNDS AND METHODS FOR MODULATING SPLICING” (REMIX THERAPEUTICS INC., priority 2021, published 2025).

In one experiment the test system is HTT mRNA. Nature of the experiment: Splicing RT-qPCR assay, HTT canonical (CJ) and alternative (AJ) junction mRNA. In kind it is cell-based, human. The settings on record: Homo sapiens, A673 or K562 cells, 24 hours compound treatment; for IC50: 24 h, read-out: HTT CJ (IC50, decrease in canonical junction mRNA); for AC50: read-out: HTT AJ (AC50, increase in alternative junction mRNA). The procedure: (§1) Compounds described herein were used to modulate RNA transcript abundance in cells. The expression of a target mRNA was measured by detecting the formation of an exon-exon junction in the canonical transcript (CJ). A compound mediated exon-inclusion event was detected by observing an increase in formation of a new junction with an alternative exon (AJ). Real-time qPCR assays were used to detect these splicing switches and interrogate the potency of various compounds towards different target genes. A high-throughput real time quantitative PCR (RT-qPCR) assay was developed to measure these two isoforms of the mRNA (CJ and AJ) for exemplary genes, such as HTT, SMN2, and MYB, together with a control housekeeping gene, GAPDH or GUSB or PPIA, used for normalization. Briefly, the A673 or K562 cell line was treated with various compounds described herein (e.g., compounds of Formula (I)). After treatment, the levels of the HTT, MYB, or SMN2 mRNA targets were determined from each sample of cell lysate by cDNA synthesis followed by qPCR.
(§2) • Cells-to-CT 1-step kit: ThermoFisher A25602, Cells-to-CT lysis reagent: ThermoFisher 4391851C, TaqMan™ Fast Virus 1-Step Master Mix: ThermoFisher 4444436 • GAPDH: VIC-PL, ThermoFisher 4326317E (Assay: Hs99999905_m1)—used for K562/suspension cell lines • GUSB: VIC-PL, ThermoFisher 4326320E (Assay: Hs99999908_m1)—used for K562/suspension cell lines • PPIA: VIC-PL, ThermoFisher 4326316E (Assay: Hs99999904_m1)—used for A673/adherent cell lines
(§3) The A673 cell line was cultured in DMEM with 10% FBS. Cells were diluted with full growth media and plated in a 96-well plate (15,000 cells in 100 ul media per well). The plate was incubated at 37° C. with 5% CO2 for 24 hours to allow cells to adhere. An 11-point 3-fold serial dilution of the compounds was made in DMSO then diluted in media in an intermediate plate. Compounds were transferred from the intermediate plate to the cell plate with the top dose at a final concentration of 10 uM in the well. Final DMSO concentration was kept at or below 0.25%. The cell plate was returned to the incubator at 37° C. with 5% CO2 for an additional 24 hours.
(§4) The K562 cell line was cultured in IMDM with 10% FBS. For K562, cells were diluted with full growth media and plated in either a 96-well plate (50,000 cells in 50 uL media per well) or a 384-well plate (8,000-40,000 cells in 45 uL media per well). An 11-point 3-fold serial dilution of the compounds were made in DMSO then diluted in media in an intermediate plate. Compound was transferred from the intermediate plate to the cell plate with the top dose at a final concentration of 10 uM in the well. Final DMSO concentration was kept at or below 0.25%. Final volume was 100 uL for 96-well plate and 50 uL for 384-well plate. The cell plate was then placed in an incubator at 37° C. with 5% CO2 for 24 hours.
(§5) The cells were then gently washed with 50 uL-100 uL cold PBS before proceeding to addition of lysis buffer. 30 uL-50 uL of room temperature lysis buffer with DNAse I (and optionally RNAsin) was added to each well. Cells were shaken/mixed thoroughly at room temperature for 5-10 minutes for lysis to take place and then 3 uL-5 uL of room temperature stop solution was added and wells were shaken/mixed again. After 2-5 minutes, the cell lysate plate was transferred to ice for RT-qPCR reaction setup. The lysates could also be frozen at −80° C. for later use.
(§6) In some cases, a direct lysis buffer was used. An appropriate volume of 3× lysis buffer (10 mM Tris, 150 mM NaCl, 1.5%-2.5% Igepal and 0.1-1 U/uL RNAsin, pH 7.4) was directly added to either K562 or A673 cells in media and mixed by pipetting 3 times. The plates were then incubated at room temperature with shaking/rocking for 20-50 minutes to allow for lysis to take place. After this time, the cell lysate plate was transferred to ice to set up for the RT-qPCR reactions. The lysates could also be frozen at −80° C. for later use. […]

The test system of the next experiment is MYB mRNA. As to the kind of experiment: Splicing RT-qPCR assay, MYB canonical (CJ) and alternative (AJ) junction mRNA. The experiment is classed as cell-based, human. To be noted: A673 or K562 cells, 24 hours compound treatment, RT-qPCR; for AC50: read-out: MYB AJ (AC50, increase in alternative junction mRNA); for IC50: read-out: MYB CJ (IC50, decrease in canonical junction mRNA). The procedure:
as §1, §2, §3, §4, §5, §6

Where two headings read alike, the source gives them in different places. Bounds are passed on as bounds.

As to `CCNC1CCN(c2ccc(C(=O)Nc3cc(F)c4nc(C)cn4c3)c3nn(CC)cc23)C1` (stereo in doubt) [Compound 399, (S)-2-ethyl-4-(3-(ethylamino)pyrrolidin-1-yl)-N-(8-fluoro-2-methylimidazo[1,2-a]pyridin-6-yl)-2H-indazole-7-carboxamide], the IC50 was > 10000 nM with HTT mRNA and 100 to 1000 nM in the experiment on MYB mRNA (Homo sapiens, 24 h). Also, the AC50 is > 10000 nM with HTT mRNA and 100 to 1000 nM in the experiment on MYB mRNA (Homo sapiens, 24 h).
`CCNC1CCN(c2ccc(C(=O)Nc3cc(F)c4nc(C)cn4c3)c3nn(CC)cc23)C1` (stereo in doubt) [Compound 400, (R)-2-ethyl-4-(3-(ethylamino)pyrrolidin-1-yl)-N-(8-fluoro-2-methylimidazo[1,2-a]pyridin-6-yl)-2H-indazole-7-carboxamide]: in the experiment with HTT mRNA, the 50% inhibitory concentration (IC50) was > 10000 nM and the AC50 is > 10000 nM. Besides, in the experiment with MYB mRNA (Homo sapiens, 24 h), the AC50 is < 100 nM and the IC50 is < 100 nM.
As to `Cc1cn2cc(NC(=O)c3ccc(N4CCc5[nH]ccc5C4)c4cn(C)nc34)cc(F)c2n1` [Compound 390, N-{8-fluoro-2-methylimidazo[1,2-a]pyridin-6-yl}-2-methyl-4-{1H,4H,6H,7H-pyrrolo[3,2-c]pyridin-5-yl}indazole-7-carboxamide], in the experiment with HTT mRNA, the IC50 is > 10000 nM and the AC50 is > 10000 nM. In the experiment on MYB mRNA (Homo sapiens, 24 h), the AC50 is > 10000 nM and the IC50 was > 10000 nM.
As to `Cc1cn2cc(NC(=O)c3ccc(N4CCNCC4)c4cn(C5CCC5)nc34)cc(F)c2n1` [Compound 391, 2-cyclobutyl-N-{8-fluoro-2-methylimidazo[1,2-a]pyridin-6-yl}-4-(piperazin-1-yl) indazole-7-carboxamide], in the experiment with HTT mRNA, the concentration for half-maximal inhibition (IC50) is > 10000 nM and the AC50 is 1000 to 10000 nM. Also, in the experiment with MYB mRNA (Homo sapiens, 24 h), the AC50 lay within 100 to 1000 nM and the IC50 is < 100 nM.
The matching figures for `C=CCn1cc2c(N3CCNCC3)ccc(C(=O)Nc3cc(F)c4nc(C)cn4c3)c2n1` [Compound 392, N-{8-fluoro-2-methylimidazo[1,2-a]pyridin-6-yl}-4-(piperazin-1-yl)-2-(prop-2-en-1-yl) indazole-7-carboxamide]: 1000 to 10000 nM, 1000 to 10000 nM, < 100 nM and < 100 nM.
With `CCn1cc2c(N3CC[C@@H](NC)C3)ccc(C(=O)Nc3cc(F)c4nc(C)cn4c3)c2n1` [Compound 393, (R)-2-ethyl-N-(8-fluoro-2-methylimidazo[1,2-a]pyridin-6-yl)-4-(3-(methylamino)pyrrolidin-1-yl)-2H-indazole-7-carboxamide], the IC50 is > 10000 nM in the experiment with HTT mRNA and 100 to 1000 nM in the experiment on MYB mRNA. For the same compound, the AC50 was > 10000 nM with HTT mRNA and 100 to 1000 nM in the experiment with MYB mRNA.
With `CCn1cc2c(N3CCC4(CCN4)CC3)ccc(C(=O)Nc3cc(F)c4nc(C)cn4c3)c2n1` [Compound 394, 4-{1,7-diazaspiro[3.5]nonan-7-yl}-2-ethyl-N-{8-fluoro-2-methylimidazo[1,2-a]pyridin-6-yl}indazole-7-carboxamide], in the experiment on HTT mRNA, the half-inhibitory concentration (IC50) is 1000 to 10000 nM and the AC50 is 1000 to 10000 nM. In the experiment on MYB mRNA (Homo sapiens, 24 h), the AC50 lay within 100 to 1000 nM and the IC50 lay in the range of 100 to 1000 nM.
On to `CCn1cc2c(N3CCC(N(C)C)CC3)ccc(C(=O)Nc3cc(F)c4nc(C)cn4c3)c2n1` [Compound 395, 4-[4-(dimethylamino)piperidin-1-yl]-2-ethyl-N-{8-fluoro-2-methylimidazo[1,2-a]pyridin-6-yl}indazole-7-carboxamide], for which, in the experiment with HTT mRNA, the IC50 was 1000 to 10000 nM and the AC50 fell in the range of 1000 to 10000 nM. In the experiment on MYB mRNA (Homo sapiens, 24 h), the AC50 is < 100 nM and the IC50 is < 100 nM.
On to `CCNC1CCN(c2ccc(C(=O)Nc3cc(F)c4nc(C)cn4c3)c3nn(CC)cc23)C1` (stereo not shown) [Compound 396, 2-ethyl-4-[3-(ethylamino)pyrrolidin-1-yl]-N-{8-fluoro-2-methylimidazo[1,2-a]pyridin-6-yl}indazole-7-carboxamide], for which, in the experiment on HTT mRNA, the IC50 is > 10000 nM and the concentration at half-maximal activity (AC50) was > 10000 nM. In the experiment on MYB mRNA (Homo sapiens, 24 h), the AC50 is < 100 nM and the IC50 was in the range of 100 to 1000 nM.
`Cc1cn2cc(NC(=O)c3ccc(N4CCC(N)(CF)CC4)c4cn(C)nc34)cc(F)c2n1` [Compound 397]: in the experiment with HTT mRNA, the IC50 is 1000 to 10000 nM and the AC50 lay within 1000 to 10000 nM. Besides, in the experiment on MYB mRNA (Homo sapiens, 24 h), the AC50 fell in the range of 100 to 1000 nM and the IC50 fell in the range of 100 to 1000 nM.
Turning to `CCn1cc2c(N3CCC(NC4CC4)C3)ccc(C(=O)Nc3cc(F)c4nc(C)cn4c3)c2n1` (stereo not shown) [Compound 398, 4-[3-(cyclopropylamino)pyrrolidin-1-yl]-2-ethyl-N-{8-fluoro-2-methylimidazo[1,2-a]pyridin-6-yl}indazole-7-carboxamide], in the experiment on HTT mRNA, the 50% inhibitory concentration (IC50) was > 10000 nM and the AC50 is > 10000 nM. Further, in the experiment on MYB mRNA (Homo sapiens, 24 h), the AC50 lay within 100 to 1000 nM and the IC50 lay within 100 to 1000 nM.
For the compound `CCn1cc2c(N3CCC4(CC3)CCN4C)ccc(C(=O)Nc3cc(F)c4nc(C)cn4c3)c2n1` [Compound 401, 2-ethyl-N-(8-fluoro-2-methylimidazo[1,2-a]pyridin-6-yl)-4-(1-methyl-1,7-diazaspiro[3.5]nonan-7-yl)-2H-indazole-7-carboxamide 2,2,2-trifluoroacetate], in the experiment with HTT mRNA, the IC50 lay within 100 to 1000 nM and the AC50 fell in the range of 100 to 1000 nM. In the experiment on MYB mRNA (Homo sapiens, 24 h), the AC50 is < 100 nM and the IC50 was < 100 nM.
As to `Cc1cn2cc(NC(=O)c3ccc(N4CCC(N)CC4)c4cn(C)nc34)cc(F)c2n1` [Compound 402, 4-(4-aminopiperidin-1-yl)-N-{8-fluoro-2-methylimidazo[1,2-a]pyridin-6-yl}-2-methylindazole-7-carboxamide], in the experiment with HTT mRNA, the IC50 was in the range of 100 to 1000 nM and the AC50 was 100 to 1000 nM. Also, in the experiment on MYB mRNA (Homo sapiens, 24 h), the AC50 was < 100 nM and the IC50 was < 100 nM.
Take `CCn1cc2c(N3CCNC(CO)C3)ccc(C(=O)Nc3cc(F)c4nc(C)cn4c3)c2n1` (stereo not shown) [Compound 403, 2-ethyl-N-{8-fluoro-2-methylimidazo[1,2-a]pyridin-6-yl}-4-[3-(hydroxymethyl)piperazin-1-yl]indazole-7-carboxamide]: in the experiment with HTT mRNA, the IC50 was 1000 to 10000 nM and the AC50 lay in the range of 1000 to 10000 nM. For the same compound, in the experiment on MYB mRNA (Homo sapiens, 24 h), the AC50 lay in the range of 100 to 1000 nM and the IC50 fell in the range of 100 to 1000 nM.
For `Cc1nc2c(C)nc(NC(=O)c3ccc(N4CCNCC4)c4cn(C)nc34)cc2o1` [Compound 405, N-{2,4-dimethyl-[1,3]oxazolo[4,5-c]pyridin-6-yl}-2-methyl-4-(piperazin-1-yl) indazole-7-carboxamide], in the experiment with HTT mRNA, the half-inhibitory concentration (IC50) was in the range of 1000 to 10000 nM and the AC50 lay in the range of 1000 to 10000 nM. Moreover, in the experiment with MYB mRNA (Homo sapiens, 24 h), the AC50 was in the range of 100 to 1000 nM and the IC50 was < 100 nM.
`Cn1cc2c(N3CCNCC3)ccc(C(=O)Nc3cc(F)c4nc(CO)oc4c3)c2n1` [Compound 406, N-[4-fluoro-2-(hydroxymethyl)-1,3-benzoxazol-6-yl]-2-methyl-4-(piperazin-1-yl) indazole-7-carboxamide]: in the experiment on HTT mRNA, the IC50 was 100 to 1000 nM and the AC50 is 100 to 1000 nM. In the experiment on MYB mRNA (Homo sapiens, 24 h), the AC50 was < 100 nM and the IC50 is < 100 nM.
